Measurements taken from patent US5093363A, “2,4,6-substituted phenol derivatives” (priority 1989, dated 1992).

Key:
cholesterol synthesis = details: disclosed by Nakatani, Farmashia 1988; cited from earlier work
HMG-CoA reductase = target: T1, HMG-CoA reductase (Rattus norvegicus, UniProt P51639); experiment: HMG-CoA reductase inhibitory activity (rat liver microsome); format: biochemical, rat (Sprague-Dawley); details: [3-^14 C]HMG-CoA, 37° C., 30 minutes, read-out: HMG-CoA reductase inhibitory activity IC50 (50% inhibition concentration)
T1 construct: Liver microsomes was prepared by using Sprague-Dawley rats; from tissue; host or cells: liver microsomes of Sprague-Dawley rats fed 2% cholestyramine diet
T1 sequence (P51639 1-887): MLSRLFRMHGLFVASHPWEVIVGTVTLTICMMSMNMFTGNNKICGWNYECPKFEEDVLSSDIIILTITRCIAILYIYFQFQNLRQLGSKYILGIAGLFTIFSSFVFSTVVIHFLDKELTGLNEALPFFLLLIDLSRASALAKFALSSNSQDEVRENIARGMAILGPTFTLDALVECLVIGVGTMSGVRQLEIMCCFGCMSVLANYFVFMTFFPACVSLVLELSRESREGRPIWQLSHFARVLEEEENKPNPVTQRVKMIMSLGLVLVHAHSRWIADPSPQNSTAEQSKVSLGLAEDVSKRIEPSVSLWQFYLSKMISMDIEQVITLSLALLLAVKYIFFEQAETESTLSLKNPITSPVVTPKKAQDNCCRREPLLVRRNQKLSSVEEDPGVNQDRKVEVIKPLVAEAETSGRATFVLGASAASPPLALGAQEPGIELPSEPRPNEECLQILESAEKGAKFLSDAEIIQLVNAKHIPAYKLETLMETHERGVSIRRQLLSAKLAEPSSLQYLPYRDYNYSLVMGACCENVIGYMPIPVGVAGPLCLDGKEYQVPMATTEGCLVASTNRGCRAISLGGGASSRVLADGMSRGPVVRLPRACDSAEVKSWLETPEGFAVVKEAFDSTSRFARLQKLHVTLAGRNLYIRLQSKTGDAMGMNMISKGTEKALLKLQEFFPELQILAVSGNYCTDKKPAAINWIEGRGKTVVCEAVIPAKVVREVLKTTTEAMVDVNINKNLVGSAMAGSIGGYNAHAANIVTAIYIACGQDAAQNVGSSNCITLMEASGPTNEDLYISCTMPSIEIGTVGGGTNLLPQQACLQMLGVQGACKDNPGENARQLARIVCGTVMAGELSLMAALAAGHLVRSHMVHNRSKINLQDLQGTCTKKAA
Description: [HMG-CoA reductase inhibitory activity]
(1a) Preparation of rat liver microsome
Liver microsomes was prepared by using Sprague-Dawley rats which freely take a general diet containing 2% cholestyramine and water for 2 weeks according to the report of Kuroda et al (Biochim. Biophys. Acta., 486, page 70, 1977). The microsome fraction obtained by centrifuging at 105000× g was washed with a solution containing 15 mM nicotinamide and 2 mM magnesium chloride (in 100 mM potassium phosphate buffer solution, pH 7.4) once. Then, thereto was added equal parts of the buffer solution containing nicotinamide and magnesium chloride to the weight of used liver. The mixture was homogenized, cooled to -80° C., and preserved.
(1b) Measurement of HMG-CoA reductase inhibitory activity
At 0° C., 100 μl of rat liver microsome preserved at -80° C. was melted and diluted with 0.7 ml of cool potassium phosphate buffer (100 mM, pH 7.4). Thereto was added 0.8 ml of 50 mM EDTA solution (the above-mentioned potassium phosphate buffer solution) and 0.4 ml of 100 mM dithiothreitol solution (the above-mentioned potassium phosphate buffer solution) and the mixture was maintained at 0° C. To 1.675 ml of the microsome solution was added 670 μl of 25 mM NADPH solution (the above-mentioned potassium phosphate buffer solution). […] By means of a scintillation counter, specific activity was measured.

[1] = test system: production of peroxidized lipids in a homogenate of rat brain; experiment: Suppression of production of peroxidized lipids in a homogenate of rat brain (TBA method); format: biochemical, rat (SD strain); details: 37° C., 30 minutes
Description: [Suppression of production of peroxidized lipids in a homogenate of rat brain]
SD strain rats (body weight, about 200 g) were sacrificed by cutting down their heads, and the brains were taken out. The brains were homogenated with a 4-fold amount of 0.05 M phosphate-sodium chloride buffer (pH 7.4) and centrifuged at 1,000× g for 10 minutes. The supernatant was kept at -80° C. for storage.
The supernatant was diluted with a 2-fold amount of the same phosphate-sodium chloride buffer as above, and 0.45 ml of the dilution was combined with 30 μl of ethanol per se (vehicle) or ethanol solution containing a test compound, followed by incubation at 37° C. for 30 minutes. The reaction was terminated by addition of a solution of 0.1% butylhydroxytoluene (BHT) (20 μl) in 25% metaphosphoric acid (125 μl). After deproteinization, the peroxidized lipids in the supernatant were measured by the thiobarbituric acid (TBA) method according to the description by Ohkawa et al.: in Anal. Biochem., Vol. 95, page 351 (1979). The amount of peroxidized lipids produced was compared with that in the vehicle applied group and expressed in % control.

[2] = concentration of test compound 0.01 mM
[3] = concentration of test compound 0.1 mM

| Compound | inhibit cholesterol synthesis (cholesterol synthesis) | IC50 (HMG-CoA reductase) | Inhibitory rate (% control) [1, 2] | Inhibitory rate (% control) [1, 3] |
| --- | --- | --- | --- | --- |
| CC[C@H](C)C(=O)O[C@H]1CCC=C2C=C[C@H](C)[C@H](CC[C@@H]3C[C@@H](O)CC(=O)O3)[C@H]21 [Mevastatin] | inhibit cholesterol synthesis |  |  |  |
| CC[C@H](C)C(=O)O[C@H]1C[C@@H](C)C=C2C=C[C@H](C)[C@H](CC[C@@H]3C[C@@H](O)CC(=O)O3)[C@H]21 [Lovastatin] | inhibit cholesterol synthesis | 0.024 µM |  |  |
| CCC(C)(C)C(=O)O[C@H]1C[C@@H](C)C=C2C=C[C@H](C)[C@H](CC[C@@H]3C[C@@H](O)CC(=O)O3)[C@H]21 [Simarastatin] | inhibit cholesterol synthesis |  |  |  |
| CC(C)(Sc1cc(C(C)(C)C)c(O)c(C(C)(C)C)c1)Sc1cc(C(C)(C)C)c(O)c(C(C)(C)C)c1 [Probucol] |  |  | 27.8 % control | 58.3 % control |
| CC(C)(C)c1cc(SC[C@@H](O)C[C@@H](O)CC(=O)O)cc(C(C)(C)C)c1O [Compound No. 3, Sodium (3R,5S)-6-[(3,5-di-tert-butyl-4-hydroxyphenyl)thio]-3,5-dihydroxyhexanoate] |  | 54 µM | 35.7 % control | 94.9 % control |
| CC[C@H](C)C(=O)O[C@H]1C[C@H](O)C=C2C=C[C@H](C)[C@H](CC[C@@H](O)C[C@@H](O)CC(=O)O)[C@H]21 [Pravastatin] | inhibit cholesterol synthesis |  |  |  |
